pIC50: −log10 of the molar value. ≈ marks a conversion by molar mass, not a printed value. Calls of active or inactive are those of the source. The rule behind the calls is not given here.
Experiments:
[1] = target: Transient receptor potential cation channel subfamily V member 1 (Rattus norvegicus, UniProt O35433); experiment: Antagonist activity against low pH(5.0-5.5)-activated rat VR1; format: functional
[2] = target: T1, Transient receptor potential cation channel subfamily V member 1 (Homo sapiens, UniProt Q8NER1); experiment: Antagonist activity against capsaicin-activated human VR1 by FLIPR assay; format: functional
T1 sequence (Q8NER1 whole entry): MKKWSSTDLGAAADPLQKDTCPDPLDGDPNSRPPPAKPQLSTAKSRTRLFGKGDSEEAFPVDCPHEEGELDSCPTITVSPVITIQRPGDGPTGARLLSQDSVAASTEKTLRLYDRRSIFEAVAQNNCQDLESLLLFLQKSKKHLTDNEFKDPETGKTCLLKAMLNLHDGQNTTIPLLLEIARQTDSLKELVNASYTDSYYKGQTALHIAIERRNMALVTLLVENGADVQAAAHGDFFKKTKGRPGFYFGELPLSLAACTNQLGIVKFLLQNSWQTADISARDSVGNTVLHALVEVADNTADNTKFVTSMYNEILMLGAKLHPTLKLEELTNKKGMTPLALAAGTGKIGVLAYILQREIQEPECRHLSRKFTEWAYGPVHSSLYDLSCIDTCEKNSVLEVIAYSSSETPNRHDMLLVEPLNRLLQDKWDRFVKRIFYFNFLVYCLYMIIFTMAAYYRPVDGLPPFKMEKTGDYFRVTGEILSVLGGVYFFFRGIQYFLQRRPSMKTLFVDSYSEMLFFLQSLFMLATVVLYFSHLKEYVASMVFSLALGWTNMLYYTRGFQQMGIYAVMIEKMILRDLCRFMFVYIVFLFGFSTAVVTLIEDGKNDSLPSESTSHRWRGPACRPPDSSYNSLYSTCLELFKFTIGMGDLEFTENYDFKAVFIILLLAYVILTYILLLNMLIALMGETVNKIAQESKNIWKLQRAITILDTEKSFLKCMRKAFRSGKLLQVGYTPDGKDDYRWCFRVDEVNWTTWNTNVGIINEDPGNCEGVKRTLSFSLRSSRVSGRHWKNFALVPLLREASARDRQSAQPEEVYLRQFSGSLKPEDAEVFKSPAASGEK

[3] = Aqueous solubility at pH 7.4 by HTsol assay; format: physicochemical; conditions: buffer
[4] = Volume of distribution in rat at 3 mg/kg, iv; format: ADME, organism-based; design: dose 3 mg/kg, route intravenous; conditions: in vivo, read-out: Vdss
[5] = target: T1, Transient receptor potential cation channel subfamily V member 1; experiment: Agonist activity at human VR1 expressed in HEK293 cells upto 4 uM; format: functional, cell-based
[6] = Clearance in rat at 3 mg/kg, iv; format: ADME, organism-based; design: dose 3 mg/kg, route intravenous; conditions: in vivo
[7] = Tmax in rat at 3 mg/kg, iv; format: ADME, organism-based; design: dose 3 mg/kg, route intravenous; conditions: in vivo
[8] = Half life in rat at 3 mg/kg, iv; format: ADME, organism-based; design: dose 3 mg/kg, route intravenous; conditions: in vivo
[9] = Bioavailability in rat at 3 mg/kg, iv; format: ADME, organism-based; conditions: in vivo
[10] = Bioavailability in rat; format: ADME, organism-based; conditions: in vivo

Chain of Transient receptor potential cation channel subfamily V member 1 (Rattus norvegicus, UniProt O35433) (O35433 whole entry): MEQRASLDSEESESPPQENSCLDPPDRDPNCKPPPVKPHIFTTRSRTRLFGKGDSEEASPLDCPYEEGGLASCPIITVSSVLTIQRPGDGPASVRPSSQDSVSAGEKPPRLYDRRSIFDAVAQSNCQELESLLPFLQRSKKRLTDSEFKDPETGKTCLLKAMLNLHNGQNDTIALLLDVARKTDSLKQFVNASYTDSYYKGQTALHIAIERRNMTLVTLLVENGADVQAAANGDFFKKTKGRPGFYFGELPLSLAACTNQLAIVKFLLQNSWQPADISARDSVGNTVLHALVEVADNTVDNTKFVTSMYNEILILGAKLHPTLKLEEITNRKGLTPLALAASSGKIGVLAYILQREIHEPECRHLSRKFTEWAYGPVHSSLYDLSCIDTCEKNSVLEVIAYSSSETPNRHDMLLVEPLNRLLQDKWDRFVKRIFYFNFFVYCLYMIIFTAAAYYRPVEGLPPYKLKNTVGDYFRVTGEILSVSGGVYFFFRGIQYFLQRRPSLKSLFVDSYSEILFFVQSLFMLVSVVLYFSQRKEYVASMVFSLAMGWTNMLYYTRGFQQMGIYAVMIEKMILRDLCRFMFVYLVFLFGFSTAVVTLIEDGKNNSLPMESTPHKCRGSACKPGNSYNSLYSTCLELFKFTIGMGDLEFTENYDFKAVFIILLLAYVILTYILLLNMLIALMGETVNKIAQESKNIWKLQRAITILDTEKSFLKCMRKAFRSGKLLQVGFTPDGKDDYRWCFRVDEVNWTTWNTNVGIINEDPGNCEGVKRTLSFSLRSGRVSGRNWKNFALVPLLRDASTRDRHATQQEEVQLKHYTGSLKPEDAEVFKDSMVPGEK

CC(C)(C)c1ccc(NC(=O)c2ccc(-c3ncccc3F)cc2)cc1
pIC50 [1]: 9.00 | pIC50 [2]: 8.52

O=C(Nc1ccc(C(F)(F)F)cc1)c1ccc(-c2ncccc2C(F)(F)F)cc1[N+](=O)[O-]
pIC50 [1]: 6.65 | pIC50 [2]: 6.41

Cc1cc(C(=O)Nc2ccc(C(F)(F)F)cc2)ccc1-c1ncccc1C
pIC50 [1]: 6.72 | pIC50 [2]: 6.63

Nc1cc(-c2ncccc2C(F)(F)F)ccc1C(=O)Nc1ccc(C(F)(F)F)cc1
pIC50 [1]: 6.99 | pIC50 [2]: 7.03

Cc1cc(-c2ncccc2C)ccc1C(=O)Nc1ccc(C(F)(F)F)cc1
pIC50 [1]: < 5.40 | pIC50 [2]: < 5.40

COc1cc(-c2ncccc2C(F)(F)F)ccc1C(=O)Nc1ccc(C(F)(F)F)cc1
pIC50 [1]: 5.98 | pIC50 [2]: < 5.40

Cc1cc(C(=O)Nc2ccc(C(F)(F)F)cc2)ccc1-c1ncccc1C(F)(F)F
pIC50 [1]: 6.72 | pIC50 [2]: 6.59

CN(C)Cc1cccnc1-c1ccc(C(=O)Nc2ccc(C(C)(C)C)cc2)cc1
pIC50 [1]: 6.63 | pIC50 [2]: 6.13 | solubility [3]: 50 µg/mL (≈ 129 µM)

CC(C)(C)c1ccc(NC(=O)c2ccc(-c3ncccc3NS(C)(=O)=O)cc2)cc1
pIC50 [1]: 7.46 | pIC50 [2]: 6.82

Cc1nc(-c2ncccc2C(F)(F)F)ccc1C(=O)Nc1ccc(C(F)(F)F)cc1
pIC50 [1]: 6.58 | pIC50 [2]: 6.59

O=C(Nc1ccc(C(F)(F)F)cc1)c1ccc(-c2ncccc2C(F)(F)F)nc1O
pIC50 [1]: 6.12 | pIC50 [2]: < 5.40

O=C(Nc1ccc(C(F)(F)F)cc1)c1ccc(-c2ncccc2C(F)(F)F)cc1O
pIC50 [1]: 7.44 | pIC50 [2]: 7.37

CC(C)(C)c1ccc(NC(=O)c2ccc(-c3ncccc3-c3nnco3)cc2)cc1
pIC50 [1]: 7.23 | pIC50 [2]: 7.04

CC(C)(C)c1ccc(NC(=O)c2ccc(-c3ncccc3NC3CCCC3)cc2)cc1
pIC50 [1]: 7.36 | pIC50 [2]: 6.72

CC(C)(C)c1ccc(NC(=O)c2ccc(-c3ncccc3CO)cc2)cc1
pIC50 [1]: 7.06 | pIC50 [2]: 6.77

Cc1cccnc1-c1ccc(C(=O)Nc2ccc(F)cc2)cc1
pIC50 [1]: < 5.40 | pIC50 [2]: < 5.40

Cc1ccc(NC(=O)c2ccc(-c3ncccc3C)cc2)cc1
pIC50 [1]: < 5.40 | pIC50 [2]: 5.59

CC(C)(C)c1ccc(NC(=O)c2ccc(-c3ncccc3C(=O)O)cc2)cc1
pIC50 [1]: 6.25 | pIC50 [2]: < 5.40 | solubility [3]: 104 µg/mL (≈ 278 µM)

Cc1nnc(-c2cccnc2-c2ccc(C(=O)Nc3ccc(C(C)(C)C)cc3)cc2)o1
pIC50 [1]: 7.47 | pIC50 [2]: 6.41

Cc1cccnc1-c1ccc(C(=O)Nc2ccc(OC(F)(F)F)cc2)cc1
pIC50 [1]: 6.05 | pIC50 [2]: 6.01

CCN(CC)Cc1cccnc1-c1ccc(C(=O)Nc2ccc(C(C)(C)C)cc2)cc1
pIC50 [1]: 6.48 | pIC50 [2]: 5.85

O=C(Nc1ccccc1)c1ccc(-c2ncccc2C(F)(F)F)cc1
pIC50 [2]: < 5.40

CC(C)(C)c1ccc(NC(=O)c2ccc(-c3ncccc3NO)cc2)cc1
pIC50 [1]: 8.30 | pIC50 [2]: 7.31

O=C(Nc1ccc(C(F)(F)F)cc1)c1ncc(-c2ncccc2C(F)(F)F)cn1
pIC50 [1]: 7.22 | pIC50 [2]: 7.38

CC(C)(C)c1ccc(NC(=O)c2ccc(-c3ncccc3N)cc2)cc1
pIC50 [1]: 6.49 | pIC50 [2]: 6.91

CCCNc1cccnc1-c1ccc(C(=O)Nc2ccc(C(C)(C)C)cc2)cc1
pIC50 [1]: 7.43 | pIC50 [2]: 6.80

CS(=O)(=O)Nc1cc(-c2ncccc2C(F)(F)F)ccc1C(=O)Nc1ccc(C(F)(F)F)cc1
pIC50 [1]: 6.14 | pIC50 [2]: 5.99

CC(C)(C)c1ccc(NC(=O)c2ccc(-c3ncccc3Cl)cc2)cc1
pIC50 [1]: 8.70 | pIC50 [2]: 8.10

Cc1cccnc1-c1ccc(C(=O)Nc2ccccn2)cc1
pIC50 [1]: < 5.40 | pIC50 [2]: < 5.40

CC(C)(C)c1ccc(NC(=O)c2ccc(-c3ncccc3-c3ncc[nH]3)cc2)cc1
pIC50 [1]: 6.16 | pIC50 [2]: 5.44

O=C(Nc1ccc(C(F)(F)F)cc1)c1ccc(-c2ncccc2C(F)(F)F)cc1F
pIC50 [1]: 6.46 | pIC50 [2]: 6.88

CCCNCc1cccnc1-c1ccc(C(=O)Nc2ccc(C(C)(C)C)cc2)cc1
pIC50 [1]: 6.19 | pIC50 [2]: 5.37

C[C@@H]1CN(c2ncccc2C(F)(F)F)CCN1C(=O)Nc1ccc(C(F)(F)F)cc1
Vd [4]: 12 L/kg | Activity [5]: inactive | clearance [6]: 39 mL/min/kg | Tmax [7]: 0.5 h | half-life [8]: 7.2 h | pIC50 [1]: 7.96 | pIC50 [2]: 7.77 | bioavailability [9]: 27%

CC(C)(C)c1ccc(NC(=O)c2ccc(-c3ncccc3NS(=O)(=O)c3ccccc3)cc2)cc1
pIC50 [1]: 6.78 | pIC50 [2]: 7.04 | solubility [3]: 1 µg/mL (≈ 2.06 µM)

O=C(Nc1ccc(C(F)(F)F)cn1)c1ccc(-c2ncccc2C(F)(F)F)cc1
pIC50 [1]: 7.19 | pIC50 [2]: 7.62

Cc1cccnc1-c1ccc(C(=O)Nc2ccc(C(C)(C)C)cc2)cc1
pIC50 [1]: 8.05

CC(C)(C)c1ccc(NC(=O)c2ccc(-c3ncccc3N(S(C)(=O)=O)S(C)(=O)=O)cc2)cc1
pIC50 [1]: 9.40 | pIC50 [2]: 9.10 | solubility [3]: 1 µg/mL (≈ 1.99 µM)

O=C(Nc1ccc(C(F)(F)F)cc1)c1ccc(-c2ncccc2C(F)(F)F)nc1
pIC50 [1]: 7.25 | pIC50 [2]: 7.22

O=C(Nc1ccc(C(F)(F)F)cc1)c1ccc(-c2ncccc2C(F)(F)F)cc1Cl
pIC50 [1]: 5.62 | pIC50 [2]: < 5.40

Cc1cccnc1-c1ccc(C(=O)Nc2ccc(C(F)(F)F)cc2)cn1
pIC50 [1]: 6.23 | pIC50 [2]: 6.20

Cc1cccnc1-c1ccc(C(=O)Nc2ccc(Cl)cc2)cc1
pIC50 [1]: 5.69 | pIC50 [2]: 5.82

CCCCS(=O)(=O)Nc1cccnc1-c1ccc(C(=O)Nc2ccc(C(C)(C)C)cc2)cc1
pIC50 [1]: 6.85 | pIC50 [2]: 6.79

CC(C)(C)c1ccc(NC(=O)c2ccc(-c3ccccn3)cc2)cc1
pIC50 [1]: 8.10 | pIC50 [2]: 7.96

COc1ccc(NC(=O)c2ccc(-c3ncccc3C)cc2)cc1
pIC50 [1]: < 5.40 | pIC50 [2]: < 5.40

Cc1cccnc1-c1ccc(C(=O)Nc2ccc(C(C)C)cc2)cc1
pIC50 [1]: 7.37 | pIC50 [2]: 7.14

CC(C)(C)c1ccc(NC(=O)c2ccc(-c3ncccc3C(=N)N)cc2)cc1
pIC50 [1]: < 5.40 | pIC50 [2]: < 5.40

CCS(=O)(=O)Nc1cccnc1-c1ccc(C(=O)Nc2ccc(C(C)(C)C)cc2)cc1
pIC50 [1]: 8.40 | pIC50 [2]: 7.31 | solubility [3]: 1 µg/mL (≈ 2.29 µM)

N#Cc1ccc(NC(=O)c2ccc(-c3ncccc3C(F)(F)F)cc2)cc1
pIC50 [1]: 5.89 | pIC50 [2]: 6.38

CC(C)(C)c1ccc(NC(=O)c2ccc(-c3ncccc3CN3CCCC3)cc2)cc1
pIC50 [1]: 6.71 | pIC50 [2]: 5.82

CC(C)(C)c1ccc(NC(=O)c2ccc(-c3ncccc3C(F)(F)F)cc2)cc1
pIC50 [1]: 8.40 | bioavailability [10]: 2% | pIC50 [2]: 8.22

CCCOc1cccnc1-c1ccc(C(=O)Nc2ccc(C(C)(C)C)cc2)cc1
pIC50 [1]: 7.70 | pIC50 [2]: 7.21

Cc1cccnc1-c1ccc(C(=O)Nc2ccc(C(F)(F)F)cc2)nc1
pIC50 [1]: 5.80 | pIC50 [2]: 5.75

CC(C)(C)c1ccc(NC(=O)c2ccc(-c3ncccc3NS(=O)(=O)Cc3ccccc3)cc2)cc1
pIC50 [1]: 6.80 | pIC50 [2]: 6.42

O=C(Nc1ccc(C(F)(F)F)cc1)c1ccc(-c2ncccc2C(F)(F)F)cc1
Activity [5]: inactive | pIC50 [1]: 7.59

CC(C)(C)c1ccc(NC(=O)c2ccc(-c3ncccc3[N+](=O)[O-])cc2)cc1
pIC50 [1]: 8.30 | pIC50 [2]: 8.30

CN(c1cccnc1-c1ccc(C(=O)Nc2ccc(C(C)(C)C)cc2)cc1)S(C)(=O)=O
pIC50 [1]: 8.05 | pIC50 [2]: 7.41 | solubility [3]: 1 µg/mL (≈ 2.29 µM)

O=C(Nc1ccc(C(F)(F)F)cc1)c1ccc(-c2ncccc2Cl)cc1
pIC50 [2]: 7.24

Cc1cccnc1-c1ccc(C(=O)Nc2ccc(C(F)(F)F)cc2)cc1
pIC50 [1]: 7.09 | pIC50 [2]: 7.19

CC(C)(C)c1ccc(NC(=O)c2ccc(-c3ncccc3C#N)cc2)cc1
pIC50 [1]: 7.89 | pIC50 [2]: 7.52

Cc1cccnc1-c1ccc(C(=O)Nc2ccc(Br)cc2)cc1
pIC50 [1]: 6.44 | pIC50 [2]: 6.72

CC(C)(C)c1ccc(NC(=O)c2ccc(-c3ncccc3-c3nnn[nH]3)cc2)cc1
pIC50 [1]: < 5.40 | pIC50 [2]: < 5.40

FC(F)(F)c1ccc(Nc2ncnc3cc(-c4ncccc4C(F)(F)F)ccc23)cc1 [NGD-8243]
Vd [4]: 12.5 L/kg | Activity [5]: inactive | clearance [6]: 23 mL/min/kg | Tmax [7]: 0.7 h | half-life [8]: 8.1 h | pIC50 [1]: 8.85 | bioavailability [9]: 99%

CC(=O)Nc1cccnc1-c1ccc(C(=O)Nc2ccc(C(C)(C)C)cc2)cc1
pIC50 [1]: 6.54 | pIC50 [2]: 5.96

CS(=O)(=O)N(c1cc(-c2ncccc2C(F)(F)F)ccc1C(=O)Nc1ccc(C(F)(F)F)cc1)S(C)(=O)=O
pIC50 [1]: < 5.40 | pIC50 [2]: < 5.40
